In patent publication US8580762B2, “Substituted purine and 7-deazapurine compounds” (Epizyme, Inc., priority 2010, dated 2013):
Like-named read-outs stand apart in the source and are kept apart here.

Target: DOT1L(1-416) (Homo sapiens, UniProt Q8TEK3)
Experiment: Determination of IC50: DOT1L(1-416) methyltransferase assay, 3H-SAM, oligonucleosome substrate, Flashplate
Format: biochemical
How it was run: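 Compounds in 10-point 3-fold DMSO dilutions were tested in reactions started with substrate mix of 200 nM [3H]-SAM, 600 nM unlabeled SAM and 20 nM oligonucleosome. Reactions ran 120 min at room temperature and were quenched with 100 μM SAM. Labeled substrate was captured on streptavidin Flashplates and counted by scintillation to give IC50.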

[1] = class symbols, read-out: DOT1L IC50

DOT1L(1-416), sequence (Q8TEK3 1-416): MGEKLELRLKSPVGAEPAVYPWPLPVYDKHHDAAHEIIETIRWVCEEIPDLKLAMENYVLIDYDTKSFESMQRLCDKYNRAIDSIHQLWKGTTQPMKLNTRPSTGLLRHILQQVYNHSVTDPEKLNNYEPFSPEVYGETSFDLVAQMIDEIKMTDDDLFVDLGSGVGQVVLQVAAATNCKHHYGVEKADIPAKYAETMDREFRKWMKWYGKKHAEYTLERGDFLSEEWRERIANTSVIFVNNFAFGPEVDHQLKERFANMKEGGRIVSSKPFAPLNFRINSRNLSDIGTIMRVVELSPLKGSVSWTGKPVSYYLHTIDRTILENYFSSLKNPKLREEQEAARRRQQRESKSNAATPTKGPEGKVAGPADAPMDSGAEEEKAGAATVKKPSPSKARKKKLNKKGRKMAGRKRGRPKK

Row | SMILES | IC50 [1] | IC50 (DOT1L IC50, class symbols)
1 | CN(C[C@H]1C[C@@H](n2ccc3c(N)ncnc32)[C@H](O)[C@@H]1O)[C@H]1C[C@H](CCc2nc3cc(C(F)(F)F)c(Cl)cc3[nH]2)C1 [Compound 12, (1R,2S,3R,5R)-3-(4-amino-7H-pyrrolo[2,3-d]pyrimidin-7-yl)-5-((((1s,3R)-3-(2-(6-chloro-5-(trifluoromethyl)-1H-benzo[d]imidazol-2-yl)ethyl)cyclobutyl)(methyl)amino)methyl)cyclopentane-1,2-diol] | < 100 nM | –
2 | CN(C[C@H]1O[C@@H](n2cnc3c(N)ncnc32)[C@H](O)[C@@H]1O)C1CC(NC(=O)Nc2ccc(C(C)(C)C)cc2)C1 (stereo partly drawn) [Compound 8, 1-(3-((((2R,3S,4R,5R)-5-(6-amino-9H-purin-9-yl)-3,4-dihydroxytetrahydrofuran-2-yl)methyl)(methyl)amino)cyclobutyl)-3-(4-(tert-butyl)phenyl)urea] | 10000 to 50000 nM | –
3 | CC(C)N(C[C@H]1O[C@@H](n2cnc3c(N)ncnc32)[C@H](O)[C@@H]1O)[C@H]1C[C@H](CCc2nc3cc(CC(F)(F)F)ccc3[nH]2)C1 [Compound 123, (2R,3R,4S,5R)-2-(6-amino-9H-purin-9-yl)-5-((isopropyl((1s,3R)-3-(2-(5-(2,2,2-trifluoroethyl)-1H-benzo[d]imidazol-2-yl)ethyl)cyclobutyl)amino)methyl) tetrahydrofuran-3,4-diol] | < 100 nM | –
4 | CN(C[C@H]1O[C@@H](n2ccc3c(N)ncnc32)[C@H](O)[C@@H]1O)[C@H]1C[C@@H](CCc2nc3cc(OC(F)(F)F)ccc3[nH]2)C1 [Compound 94, (2R,3R,4S,5R)-2-(4-amino-7H-pyrrolo[2,3-d]pyrimidin-7-yl)-5-((methyl((1r,3S)-3-(2-(5-(trifluoromethoxy)-1H-benzo[d]imidazol-2-yl)ethyl)cyclobutyl)amino)methyl) tetrahydrofuran-3,4-diol] | < 100 nM | –
5 | CC(C)N(C[C@H]1O[C@@H](n2cnc3c(N)ncnc32)[C@H](O)[C@@H]1O)[C@H]1C[C@@H](CCc2nc3cc(C4(C)CCC4)ccc3[nH]2)C1 [Compound 28, (2R,3R,4S,5R)-2-(6-amino-9H-purin-9-yl)-5-((isopropyl((1r,3S)-3-(2-(5-(1-methylcyclobutyl)-1H-benzo[d]imidazol-2-yl)ethyl)cyclobutyl)amino)methyl)tetrahydrofuran-3,4-diol] | < 100 nM | –
6 | CN(C[C@H]1C[C@@H](n2ccc3c(N)ncnc32)[C@H](O)[C@@H]1O)[C@H]1C[C@H](CCc2nc3cc(C(F)(F)F)ccc3[nH]2)C1 [Compound 11, (1R,2S,3R,5R)-3-(4-amino-7H-pyrrolo[2,3-d]pyrimidin-7-yl)-5-((methyl((1s,3R)-3-(2-(5-(trifluoromethyl)-1H-benzo[d]imidazol-2-yl)ethyl)cyclobutyl)amino)methyl)cyclopentane-1,2-diol] | < 100 nM | –
7 | CN(C[C@H]1O[C@@H](n2cnc3c(N)ncnc32)[C@H](O)[C@@H]1O)[C@H]1C[C@H](CCc2nc3cc(C4(C)CCC4)ccc3[nH]2)C1 [Compound 34] | < 100 nM | –

More lines, now with the values ahead:

Row | IC50 [1] | IC50 (DOT1L IC50, class symbols) | SMILES
8 | < 100 nM | – | CN(C[C@H]1C[C@@H](n2ccc3c(N)ncnc32)[C@H](O)[C@@H]1O)[C@H]1C[C@H](CCc2nc3cc(OC(F)(F)F)ccc3[nH]2)C1 [Compound 57, (1R,2S,3R,5R)-3-(4-amino-7H-pyrrolo[2,3-d]pyrimidin-7-yl)-5-((methyl((1s,3R)-3-(2-(5-(trifluoromethoxy)-1H-benzo[d]imidazol-2-yl)ethyl)cyclobutyl)amino)methyl)cyclopentane-1,2-diol]
9 | < 100 nM | – | CN(C[C@H]1C[C@@H](n2ccc3c(N)ncnc32)[C@H](O)[C@@H]1O)[C@H]1C[C@@H](CCc2nc3cc(C4(C)CCC4)ccc3[nH]2)C1 [Compound 36, (1R,2S,3R,5R)-3-(4-amino-7H-pyrrolo[2,3-d]pyrimidin-7-yl)-5-((methyl((1r,3S)-3-(2-(5-(1-methylcyclobutyl)-1H-benzo[d]imidazol-2-yl)ethyl)cyclobutyl)amino)methyl)cyclopentane-1,2-diol]
10 | 100 to 1000 nM | – | CC(C)(C)c1ccc2[nH]c(CCC3CC(N(C[C@H]4C[C@@H](n5ccc6c(N)ncnc65)[C@H](O)[C@@H]4O)CC(F)(F)F)C3)nc2c1 (stereo partly drawn) [Compound 66, (1R,2S,3R,5R)-3-(4-amino-7H-pyrrolo[2,3-d]pyrimidin-7-yl)-5-(((3-(2-(5-(tert-butyl)-1H-benzo[d]imidazol-2-yl)ethyl)cyclobutyl) (2,2,2-trifluoroethyl)amino)methyl)cyclopentane-1,2-diol]
11 | < 100 nM | – | CC(C)N(C[C@H]1O[C@@H](n2cnc3c(N)ncnc32)[C@H](O)[C@@H]1O)[C@H]1C[C@@H](CCc2nc3cc(C4(C#N)CC4)ccc3[nH]2)C1 [Compound 135, 1-(2-(2-((1S,3r)-3-((((2R,3S,4R,5R)-5-(6-amino-9H-purin-9-yl)-3,4-dihydroxytetrahydro-furan-2-yl)methyl)(isopropyl)amino)cyclobutyl)ethyl)-1H-benzo[d]imidazol-5-yl)cyclo-propanecarbonitrile]
12 | < 100 nM | – | CCN(C[C@H]1O[C@@H](n2ccc3c(N)ncnc32)[C@H](O)[C@@H]1O)[C@H]1C[C@@H](CCc2nc3cc(C(C)(C)C)ccc3[nH]2)C1 [Compound 89, (2R,3R,4S,5R)-2-(4-amino-7H-pyrrolo[2,3-d]pyrimidin-7-yl)-5-((((1r,3S)-3-(2-(5-(tert-butyl)-1H-benzo[d]imidazol-2-yl)ethyl)cyclobutyl) (ethyl)amino)methyl) tetrahydrofuran-3,4-diol]
13 | < 100 nM | – | CC(C)N(C[C@H]1O[C@@H](n2cnc3c(N)ncnc32)[C@H](O)[C@@H]1O)[C@H]1C[C@@H](CCc2nc3cc(C(C)(C)C#N)ccc3[nH]2)C1 [Compound 128, 2-(2-(2-((1S,3r)-3-((((2R,3S,4R,5R)-5-(6-amino-9H-purin-9-yl)-3,4-dihydroxytetrahydro-furan-2-yl)methyl)(isopropyl)amino)cyclobutyl)ethyl)-1H-benzo[d]imidazol-5-yl)-2-methylpropanenitrile]
14 | – | < 100 nM | CC(C)[N+]([O-])(CC1O[C@@H](n2cnc3c(N)ncnc32)[C@H](O)[C@@H]1O)[C@H]1C[C@H](CCc2nc3cc(C(C)(C)C)ccc3[nH]2)C1 (stereo partly drawn) [Compound 107, (R,1s,3R)-N-(((2R,35,4R,5R)-5-(6-amino-9H-purin-9-yl)-3,4-dihydroxy-tetrahydrofuran-2-yl)methyl)-3-(2-(5-(tert-butyl)-1H-benzo[d]imidazol-2-yl)ethyl)-N-isopropyl-cyclobutanamine oxide]
15 | < 100 nM | – | CC(C)CN(C[C@H]1C[C@@H](n2ccc3c(N)ncnc32)[C@H](O)[C@@H]1O)[C@H]1C[C@@H](CCc2nc3cc(C(C)(C)C)ccc3[nH]2)C1 [Compound 53, (1R,2S,3R,5R)-3-(4-amino-7H-pyrrolo[2,3-d]pyrimidin-7-yl)-5-((((1r,3S)-3-(2-(5-(tert-butyl)-1H-benzo[d]imidazol-2-yl)ethyl)cyclobutyl)(isobutyl)amino)methyl)cyclopentane-1,2-diol]
16 | < 100 nM | – | CC(C)N(C[C@H]1O[C@@H](n2cnc3c(N)ncnc32)[C@H](O)[C@@H]1O)[C@H]1C[C@H](CCc2nc3cc(C4(C#N)CC4)ccc3[nH]2)C1 [Compound 136, 1-(2-(2-((1R,3s)-3-((((2R,3S,4R,5R)-5-(6-amino-9H-purin-9-yl)-3,4-dihydroxytetrahydro-furan-2-yl)methyl)(isopropyl)amino)cyclobutyl)ethyl)-1H-benzo[d]imidazol-5-yl)cyclo-propanecarbonitrile]
